Experiments:
[1] = tested on: human colorectal cancer (Caco2) cells; assay: MTT cell viability assay, Caco2; assay type: cell-based
Method: The cytotoxic effect of the Hapbim ligand and its complexes (1) and (2) on human breast cancer (MCF7), human colorectal cancer (Caco2), and human normal liver (THLE-2) cell lines was evaluated by the MTT assay. The cells were cultured in a 96-well plate (1 × 10^4 cells/well, 100 μL/well) containing DMEM medium provided with 10% fetal bovine serum, and 1% penicillin/streptomycin. Then, the cells were incubated at 37 °C for 24 h in a CO2 incubator under 5% CO2, 95% air until reaching a confluence of 70–80%. A 20 μL volume of each compound at different concentrations (from 5 to 400 μM for the cancer cell and from 600 to 1000 μM for the normal cells) was added and the cells were re-incubated for a further 24 h. After the incubation period, the cells were incubated again with 5 mg/mL of MTT for 4 h and then the medium was replaced with 100 μL DMSO and vortexed for 20 min. Finally, the absorbance was recorded at 570 nm using the microplate reader. […] To calculate the cell inhibition percentage, the following equation was used:% Cell inhibition = 100 − % cell viability ((At − Ab)/(Ac − Ab)) × 100%)(4) where At is the absorbance value of tested compound; Ab is the absorbance value of blank; Ac is the absorbance value of the control.

[2] = tested on: Ehrlich ascites carcinoma (EAC) cells; assay: EAC cytotoxicity assay in vitro (trypan blue exclusion); assay type: cell-based, mouse; details: 2 h at 37 °C
Method: The cytotoxicity determination of compound (2) against EAC cells was calculated by the trypan blue exclusion method. The EAC cells were aspirated from the mouse’s peritoneal cavity by a sterile syringe and immediately transferred into a sterile falcon tube. Then, the cells were washed with sterile PBS to remove any serum or blood traces and centrifuged for 3 min, after which the supernatant was removed. After washing 2–3 times with PBS, the cell pellet was aspirated into a sterile falcon tube and every 1 mL of cell pellet was resuspended in 9 mL of sterile PBS until a concentration of […] in 0.1 mL was achieved, as determined with a hemocytometer; where 0.1 mL of cell suspension was added to 0.880 mL PBS then 20 μL of trypan blue was added. The cells’ viability was checked using a hemocytometer and found to be greater than 98%. […] Cells were visualized and counted under the microscope. For each sample at least 500 cells were counted, and the percent of dead to live cells was calculated. […] The percentage of cell viability was calculated using Equations (5) and (6):(5) % Cytotoxicity=Tdead−Cdead/Ttotal×100% % Viability = 100 − % Cytotoxicity(6) where Tdead is the number of dead cells in the treated tube, Cdead is the number of dead cells in the control tube, and Ttotal is the total number of cells (dead + live) in the treated tube.

MCF7 cells = assay: Cell-cycle analysis by flow cytometry (PI), MCF7; assay type: cell-based, human; details: MCF7, 117.6 μg/mL, 24 h
Method: The Ru(III) complex (2) (117.6 μg/mL) was added to MCF7 and Caco2 cells at a confluence of 70–80% and incubated for 24 h (in a CO2 incubator). The cells were then digested with warm trypsin-EDTA + warm PBS-EDTA (0.25%) (500 + 500 μL) with incubation for 10 min at 37 °C. The mixture was centrifuged (450 rpm) for 5 min, then the supernatant was removed. The mixture was washed twice in warm PBS and the cell pellet was re-suspended in 500 µl warm PBS, centrifuged and the supernatant decanted. A volume of 150 μL PBS + 350 μL ice-cold 70% ethanol was added and incubated at 4 °C for 1 h to fix the cells. To remove ethanol, the mixture was centrifuged at 350 rpm for 10 min and then the supernatant was removed. The mixture was washed twice in warm PBS and the cells were re-suspended in 500 μL of warm PBS, centrifuged, and the supernatant was removed. The cells were resuspended in 100 μL PBS and stored at 4 °C for up to four days. In darkness, the cells were stained with 100 µL of propidium iodide (PI) solution + 50 µL RNase A solution (100 µg/mL) and incubated in darkness for 30–60 min. The stained cells were read in an Attune flow cytometer (Applied Bio-system, Foster City, CA, USA).

[3] = tested on: Ehrlich ascites carcinoma (EAC); assay: EAC mouse model: abdominal size and peritoneal angiogenesis; assay type: in vivo, mice; details: for mean abdominal circumference: EAC mice
Method: The mice were divided into the following eight groups (10 mice in each group): • Control group: Mice were intraperitoneally injected with a vehicle (2% DMSO + sterile saline) for 12 days. • I, II, and III control groups: Healthy normal mice were intraperitoneally injected with 6, 12, and 18 mg/kg of complex (2), respectively, for 12 days. • EAC group: Mice were intraperitoneally injected by a single dose of 2.5 × 10^6 viable Ehrlich ascites carcinoma (EAC) cells in PBS. In brief, EAC cells were withdrawn from the EAC mouse’s intraperitoneal cavity, washed, and centrifuged three times with sterile saline. Then, the pellets were suspended in sterile PBS and counted by the trypan blue exclusion assay, which confirmed that the viability of the cells was 98%. • I, II, and III treated groups: Firstly, 30 healthy mice were intraperitoneally injected with a single dose of 2.5 × 10^6 viable EAC cells. After one day; the mice were divided into I, II, and III treated groups (10 mice each group), intraperitoneally injected with 6, 12, and 18 mg/kg Ru(III) complex, respectively, for 12 days.
The animals were monitored for EAC growth by measuring abdominal size. At the end of the experiment all animals were fasted overnight then sacrificed. Serum samples were collected to study the biological parameters such as liver and kidney function as well as antioxidant enzyme activity. Liver samples from each group were frozen immediately in liquid nitrogen for molecular analysis.

CS(C)=O.Nc1ccccc1-c1nc2ccccc2[nH]1.O.[Cl][Ru]([Cl])[Cl] [(2), [Ru(III)Cl3(DMSO)(Hapbim)]·H2O]
IC50 ([1]; MTT, 24 h): 250 ± 10 µM
IC50 Caco2 ([1]; MTT, 24 h): 129 ± 8 µg/mL
Therapeutic index: IC50 of THLE-2 cell/IC50 of Caco2 ([1]; in vitro): 9.95
IC50 against EAC cells [2]: 70 ± 1 µg/mL
cells in G0/G1 phase (MCF7 cells): 24%
cells in G2/M phase (MCF7 cells): 55%
cells in S phase (MCF7 cells): 21%
peritoneal angiogenesis ([3]; EAC mice, 6, 12, 18 mg/kg treated groups vs EAC group): decreased in a dose-dependent manner
mean abdominal circumference ([3]; I (6 mg/kg) i.p. for 12 days, untreated EAC 13.20 ± 0.03, control 7.06 ± 0.18): 9.6 ± 0.2 cm
mean abdominal circumference ([3]; II (12 mg/kg) i.p. for 12 days): 7.30 ± 0.03 cm
mean abdominal circumference ([3]; III (18 mg/kg) i.p. for 12 days): 7.10 ± 0.03 cm

From paper PMC7570852, “Ruthenium(II)/(III) DMSO-Based Complexes of 2-Aminophenyl Benzimidazole with In Vitro and In Vivo Anticancer Activity” (Molecules, 2020)
